{
  "source": "patent US20110190162A1",
  "about": "“METHOD OF NUCLEIC ACID DELIVERY INTO THREE-DIMENSIONAL CELL CULTURE ARRAYS” (priority 2009, published 2011)",
  "key": {"[1]": {"assay": "Metabolism-induced toxicity assay, cell viability", "format": "cell-based", "details": "human, HepG2 cells infected with Ad-3A4 (expressing CYP3A4); HepG2 transfected with Ad-3A4 at 40 MOI, 24 h exposure; read-out: calculated IC50 (cell viability)", "experimental": "Metabolism-induced toxicity assay was performed with acetaminophen on HepG2 cells expressing CYP3A4. After transfecting HepG2 cells with Ad-3A4 at 40 MOI, HepG2 cells were exposed to acetaminophen at varying concentrations for 24 h. HepG2 cell viability decreased as acetaminophen concentration increased."}, "[2]": {"test_system": "parent HepG2 cells (control)", "assay": "Acetaminophen toxicity, cell viability", "format": "cell-based", "details": "Homo sapiens, 24 h exposure, read-out: calculated IC50 (cell viability)"}},
  "data": [
    {"compound": "CC(=O)Nc1ccc(O)cc1", "note": "[acetaminophen]", "values": [
      {"measurement": "IC50 at 24 h", "setting": "[1]", "result": 7.3, "unit": "mM"},
      {"measurement": "IC50", "setting": "[2]", "result": 17.5, "unit": "mM"}
    ]}
  ]
}
